Source: patent US8367716B2 (priority 2003, dated 2013)

Key:
Salmonela enteritidis = experiment: Biofilm formation in Salmonela enteritidis; assay type: cell-based
[1] = system: S. aureus strain DK825 adherence to HeLa cells; experiment: Epithelial cell assay (bacterial adherence to HeLa cells); assay type: cell-based, Staphylococcus aureus
Protocol: Epithelial cell assay. HeLa cells (ATCC CCL2) were grown to confluence in complete medium (10% FBS from Sigma, DMEM/F12 with glutamine from Invitrogen and 50 μg/ml gentamicin) and were trypsinized with 0.1% trypsin-EDTA. Approximately 1×10^5 HeLa cells were seeded in each well of a chamber slide and then the HeLa cells were incubated at 37° C. in 5% CO2 for at least 18 h until 85% confluent. Prior to infection, the HeLa cells were washed twice with warm PBS and then 500 μl warm FMEM/F12 was added to each well. For the bacterial adherence assay, an overnight culture of S. aureus strain DK825 was grown overnight in 5 ml LB broth at 37° C. with shaking at 250 rpm. Following incubation, 1 ml of the overnight culture was pelleted, washed twice with PBS and resuspended in 1 ml of PBS. The HeLa cells in the wells were washed twice with 500 μl of HBSS and aliquots of DMEM with the desired final concentration of c-di-GMP (0-, 2-, 20- and 200 μM) were prepared. DMEM (500 μl) containing the respective concentrations of c-di-GMP was inoculated into the wells containing HeLa cells followed by the addition of 10 μl (˜10^7 cells) S. aureus (MOI HeLa:bacteria˜1:100). The epithelial cell assay was incubated in CO2 for 45 min. Following incubation the cells were washed twice with 500 μl PBS and fixed with 2% formalin for 20 min. The cells were again washed twice with PBS and stained with Giemsa stain for 10 seconds, washed three times with PBS, then the cells covered with 40 μl of 90% glycerol in water and a cover slip was placed. The slides were observed under a light microscope (Zeiss Axioskop) at 630×mag. The level of bacterial adherence to 100 individual HeLa cells was calculated for each duplicate treatment and the average determined.

S. aureus DK825 [2] = experiment: Effect on 24 h pre-formed biofilms; assay type: cell-based, Staphylococcus aureus; settings: 200 μM added to 24 h pre-formed biofilm, further 24 h
Protocol: Effect of c-di-GMP on S. aureus pre-formed biofilms. S. aureus DK825 was subcultured from glycerol stocks onto blood agar plate and incubated at 37° C. statically. A single colony was inoculated into 5 ml TSB broth (containing 0.25% glucose) and incubated at 37° C. overnight with shaking at 250 rpm until the culture reached OD660˜3.0. Following incubation the culture was diluted to 1:250 with fresh TSB broth and a 200 μl of the diluted culture was transferred into each well of microtitre plate and the plate containing wells with S. aureus cultures was incubated statically at 37° C. for 24 h. After 24 h, an appropriate volume of c-di-GMP was added to give a final concentration of 200 μM and represented the “treated” sample. As an “untreated” control, an identical volume of 0.9% NaCl was added to independent wells. The plates were then incubated statically at 37° C. for an additional 24 h. Following incubation the culture was discarded and microtitre plate was washed twice with 1X PBS. An equal volume (260 μl) of 1X PBS was added to each well for washing. The plates were then kept for drying on paper towel ˜30 min. A 260 μl of 0.1% crystal violet was added to each well to stain the cells in the biofilm and the plates were incubated at room temperature for 30 min. […] To quantitatively assay the amount of biofilm, the OD570 was measured by a spectrophotometer (SpectraMAX 250, Molecular Devices). […]

S. aureus DK825 [3] = experiment: Coagulase production (bound or free); assay type: cell-based, Staphylococcus aureus
[4] = system: S. aureus Newbould 305 strain; experiment: Mouse mastitis model of S. aureus infection; assay type: in vivo, Staphylococcus aureus
Protocol: A mouse mastitis model of S. aurreus infection using the S. aureus Newbould 305 strain (Brouillette et al., 2003, 2004a and 2004b) was used to show the effectiveness of treatment with c-di-GMP. Three mice per group and two glands per mouse were used for a total of six samples per treatment. 100 CFU (colony forming units) of S. aureus Newbould 305 strain were inoculated into each mammary gland. Five or 50 nanomoles of c-di-GMP was administered by injection twice into each mammary gland at 0 hr. (pre-mixed with the S. aureus inoculum in 100 μl volume, i.e., 50 or 500 μM concentration) and at 4 hr. post-infection (in 50 μl, i.e., 100 or 1000 μM). The mammary glands were harvested at 10 hrs. post-infection. Considering the volume of the mammary gland with milk to be about 250 μl, the final concentration of c-di-GMP in the mammary gland at each injection was estimated to be 20 μM or 200 μM.

[5] = 0.2 N NaOH, ~pH 13.5, 37° C. for 24 h; Ross et al.; cited from earlier work
S. aureus = experiment: Biofilm formation on polystyrene microtitre plates (crystal violet, O.D.570); assay type: cell-based, Staphylococcus aureus
Protocol: Effect of c-di-GMP on S. aureus biofilm formation. S. aureus strains were subcultured from glycerol stocks onto blood agar plates and incubated at 37° C. for 18 h. A single colony was inoculated into 5 ml TSB broth with a sterilized loop and incubated at 37° C. for 18 h with shaking at 250 rpm and until the O.D.660 reached 3.0 as measured spectrophotometrically using a spectrophotometer (SpectraMAX 250, Molecular Devices). Following incubation, the culture was diluted 1:250 with fresh TSB and a 200 μl of the diluted culture was transferred into wells of a flat-bottom polystyrene microtitre plate (Evergreen Scientific). […] In these biofilm experiments, similar volumes of 0.9% NaCl was added to a set of different wells representing the “untreated” control samples. The microtitre plates were then incubated statically at 37° C. for 24 h or 48 h. Following incubation, the supernatant was carefully discarded and the wells washed twice with 260 μl PBS. The plate was then kept for drying on a paper towel for 30 min after which 260 μl 0.1% crystal violet was added to each well and the plates incubated at room temperature for 30 min. The crystal violet was discarded and plate washed gently with water, the wells allowed to dry for 30 min then 260 μl DMSO was added to each well and gently agitated for 1 h and the O.D.570 measured by using a spectrophotometer (SpectraMAX 250, Molecular Devices). The results of these biofilm assays were based on data obtained from at least three independent colonies tested in duplicate.

## Nc1nc2c(ncn2C2OC3COP(=O)(O)OC4C(COP(=O)(O)OC3C2O)OC(n2cnc3c(=O)[nH]c(N)nc32)C4O)c(=O)[nH]1 (stereo not drawn) [c-di-GMP, 3′,5′-cyclic diguanylic acid]
Salmonela enteritidis
  effect on biofilm formation: induce or enhance biofilm formation
[1]; 2 μM
  effect on adherence to HeLa cells: did not show any obvious effect
[1]; 20 μM
  effect on adherence to HeLa cells: did not show any obvious effect
[1]; 200 μM
  reduction in adherence: ~66%
[1]; 200 μM, untreated 12 bacteria/cell
  average adherence: 4 bacteria/cell
S. aureus DK825 [2]
  reduction of further biofilm development: ~75%
S. aureus DK825 [3]
  coagulase production treated vs untreated: no difference
[4]; 5 or 50 nanomoles per injection
  effect on CFU counts in the mammary gland: significant dose-dependent suppressing effect
[4]; 50 nanomoles injected into mammary gland at 0 and 4 hr., harvest 10 hrs. post-infection
  inhibition of S. aureus infection of the mammary gland (CFU counts): at least 10 fold
[5]
  stability in relatively strong alkali (cellulose activating activity): labile
S. aureus; DK825, 20 μM, 24 h
  reduction of biofilm formation: ~50%
S. aureus; DK825, 200 μM, 24 h
  reduction of biofilm formation: ~65%
S. aureus; DK825, 400 μM, 24 h
  reduction of biofilm formation: ~85%
S. aureus; bovine strains V329, M556, V299, V315
  reduction of biofilm formation: 50-70%
S. aureus; human and bovine isolates vs untreated controls
  reduction of cell-to-surface interactions and biofilm formation: > 50%
